Source: patent publication US20230060873A1, “COMPOUNDS AND METHODS FOR FORMING ION CHANNELS IN BIOLOGICAL MEMBRANES” (Washington University, priority 2021, published 2023)
In brackets after ≈: the same amount, converted by molar mass.

Columns and labels:
Bacillus subtilis = assay: Toxicity (MIC) of dialkylated lariat ethers on B. subtilis; type: cell-based; settings: B. subtilis 168 WT, 12 h, visual turbidity, read-out: minimum inhibitory concentration (MIC)
Experimental: The cyto-toxicity was determined by measuring the minimum inhibitory concentrations (MIC) for this series of dialkylated lariat ethers in the Gram-negative bacteria Escherichia coli, the Gram-positive bacteria Bacillus subtilis, and human embryonic kidney (HEK293T) cells.
On bacteria. XL1 blue strain Escherichia coli cells transformed with a pET28a plasmid (which contains a kanamycin resistance gene) were grown at 37° C. in 2 mL of LB medium (Miller's LB broth, Research Products International) supplemented with 50 μg/mL of kanamycin until the optical density (600 nm) reached 0.600. The starting density of bacteria in the remainder of the experiments was a 1/100 dilution of this bacterial density, which was split into 4 mL cultures. A series of 400, 100, 10 and 5 mM stock solutions of each dialkylated diaza(18-crown-6) compounds in trifluoroethanol (TFE) were diluted by adding to the 4 mL cultures until final concentrations of 400, 200, 100, 50, 20, 15, 10, 5, 4, 3, 2 and 1 μM were reached, with the final TFE concentration never >0.1% v/v. Negative controls in the presence of TFE 0.1% v/v or the absence of any treatment were done for each batch. The cultures were incubated at 37° C. with agitation for 12 h. Bacillus subtilis (168 WT) toxicity tests were carried out using an identical protocol, except for the addition of the antibiotic. […] Each compound was assayed a minimum of three times at each tested concentration.

B. subtilis cells = assay: Lactate dehydrogenase release (resofurin fluorescence), lariat ether; type: cell-based, Bacillus subtilis; settings: 2 μM, 37° C, lithium lactate/NAD+ solution
Source text: A well-established assay was utilized to measure cell lysis by monitoring the release of the enzyme lactate dehydrogenase (LDH), which is ubiquitous in the cytoplasm of all cell types. The tetrameric active form of LDH catalyzes the final step of the glycolysis in B. subtilis and has a molecular weight of approximately 146 kDa in, with a nearly globular shape of an approximated radius of 80 Å (PDB ID: 3PQD). […] LDH couples two redox reactions, the first involving the interconversion of pyruvate (oxidized) and L-lactate (reduced) and the second, the interconversion of NAD^+ (oxidized) and NADH (reduced). The NADH oxidation can be coupled to the diaphorase-catalyzed […] of resazurin to resofurin, which is highly fluorescent. When the concentrations of L-lactate, NAD^+, diaphorase, and resazurin are saturated, the rate of increase in the resofurin fluorescence is limited only by the amount of available LDH in the medium.
To prepare the experiment, a 2-mL liquid culture of B. subtilis cells was grown at 37° C. in media until OD600=0.600, and then collected by centrifugation at 2000 rpm during 3 min. […] Fluorescence intensity was recorded each second using a Horiba Fluoromax 4 spectrometer (excitation wavelength=550 nm; emission wavelength=583 nm). […] To normalize, the fluorescence was divided by the fluorescence level just before timepoint t4. […]

[1] = Planar lipid bilayer ion channel recordings; type: biochemical
Experimental: Experiments in planar lipid bilayers were performed via a Nanion Orbit-mini planar bilayer system. The planar membranes were formed by painting a 25 mg/mL solution of lipids in n-nonane over the four 50 μm apertures on the chip. The lipids used were asolectin from soybean (Sigma-Aldrich) or a 3:1 w/w mix of 1-palmitoyl-2-oleoyl-sn-glycero-3-phosphoethanolamine (POPE) and 1-palmitoyl-2-oleoyl-sn-glycero-3-phospho-(1′-rac-glycerol) (POPG) (Avanti Polar lipids). The solutions tested were KCl solution (150 mM KCl, 10 mM HEPES, pH adjusted to 7.4 with KOH), NaCl solution (150 mM NaCl, 10 mM HEPES, pH adjusted to 7.4 with NaOH), and a concentrated KCl solution (500 mM KCl, 10 mM HEPES, pH adjusted to 7.4 with KOH). When the appropriate membrane formed, the voltage was clamped at 100 mV or −100 mV, and a stock solution of gramicidin D (Sigma-Aldrich) in DMSO or LEC10 in TFE were added up to the desired concentration. The tested concentration of gramicidin D was 1 nM and 2, 10, 100 and 200 μM were tested for LEC10. Two different temperatures were tested for each condition: 25 and 37° C. The current was recorded over 10 min for the gramicidin test and up to 1 h for the LEC10 test. The data was analyzed with Clampfit 10.7 software (Axon Instruments).
FIGS. 41 and 42 show the lipid bilayer recordings. Current through the asolectin planar lipid bilayer clamped at 100 mV was recorded in the presence of […] (FIG. 41) and 2 μM LEC10 (FIG. 42). In both cases, the solution was 150 mM KCl, 10 mM HEPES, pH 7.4. […] This lack of unitary channel formation, or even a carrier-like increase of the conductance, precludes an ionophore-like mechanism of ion transport.

Q: With `CCCCCCCCCCN1CCOCCOCCN(CCCCCCCCCC)CCOCCOCC1` [LEC10, Didecyl diaza(18-crown-6)] as the compound, how does the MIC (Bacillus subtilis) read?
A: Its MIC is 2 µM (≈ 1.09 µg/mL).

Q: What about the “resofurin fluorescence (LDH release)” value (B. subtilis cells) of the same compound?
A: Its value is “rapid rise in the fluorescence”.

Q: And the ion channel activity ([1]; 2 μM, bilayer clamped at 100 mV, 150 mM KCl, 10 mM HEPES, pH 7.4)?
A: The ion channel activity was “no ion channel activity was detected”.

Q: And the ion channel activity ([1]; LEC10 10, 100 and 200 μM, KCl up to 500 mM or NaCl instead of KCl)?
A: The ion channel activity was “no indication of ion channel activity”.
